In US11304886B2, “N-acyl sarcosines as antimicrobials for preservation of home and personal care products” (GALAXY SURFACTANTS LTD., priority 2016, dated 2022):

Tests used:
Assay in all cases: Minimum Inhibitory Concentration (MIC)
Assay type in all cases: cell-based
[1] = tested on: Malassezia furfur MTCC 1374
[2] = tested on: Propionibacterium acnes ATCC 1953
[3] = tested on: Escherichia coli ATCC 8739
[4] = tested on: Staphylococcus aureus ATCC 6538
[5] = tested on: Candida albicans ATCC 10231
[6] = tested on: Pseudomonas aeruginosa ATCC 15442
[7] = tested on: Aspergillus niger ATCC 16404

| MIC (%) [1] [%] | MIC (%) [2] [%] | MIC (%) [3] [%] | MIC (%) [4] [%] | MIC (%) [5] [%] | MIC (%) [6] [%] | MIC (%) [7] [%] | SMILES |
| --- | --- | --- | --- | --- | --- | --- | --- |
| 0.6 | 0.6 | 0.7 | 0.7 | 0.7 | 0.7 | >1.0 | CCCCCCCC(=O)N(C)CC(=O)O [N-Capryloyl sarcosine, N-Capryloyl Sarcosine] |
| 0.6 | 0.7 | 0.7 | 0.6 | 0.6 | 0.6 | >1.0 | C=CCCCCCCCCC(=O)N(C)CC(=O)O [N-Undecylenoyl sarcosine, N-Undecylenoyl Sarcosine] |

| SMILES | MIC (%) [1] [%] | MIC (%) [2] [%] | MIC (%) [3] [%] | MIC (%) [4] [%] | MIC (%) [5] [%] | MIC (%) [6] [%] | MIC (%) [7] [%] |
| --- | --- | --- | --- | --- | --- | --- | --- |
| OCCOc1ccccc1 [phenoxy ethanol, 2-phenoxy ethanol, reference compound] | 0.6 | 0.4 | 0.6 | 0.8 | 0.6 | 0.8 | 0.9 |
